Measurements: the supplement of paper PMC10307832

Tests used:
Test in all cases: relative viability (nuclei count vs DMSO), 5 days (fraction); higher = more cells survive
[1] = compound: O=C(C[C@H]1NCCC[C@@H]1O)Cn1cnc2cc(Br)c(Cl)cc2c1=O (racemic) [Halofuginone] + O=C(CCCCCCC(=O)Nc1ccccc1)NO [Vorinostat] (partner 1 µM)
How it was run: (§1)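 Lung cancer cell lines, seeded in 1536-well plates, were treated the following day by pin tool with a single drug or with five library-drug doses (not always all listed) in √10 steps on top of a fixed anchor-drug dose. Cells were fixed and nuclei stained in one step after 5 days, and nuclei were counted. Relative viability is the nuclei count for treated wells divided by that for vehicle wells, reported as medians of duplicate plates.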

[2] = compound: O=C(C[C@H]1NCCC[C@@H]1O)Cn1cnc2cc(Br)c(Cl)cc2c1=O (racemic) [Halofuginone] + COc1cc2c(Oc3ccc(NC(=O)C4(C(=O)Nc5ccc(F)cc5)CC4)cc3F)ccnc2cc1OCCCN1CCOCC1 [Foretinib] (partner 0.25 µM)
How it was run: as §1

[3] = compound: Nc1ncn([C@H]2C[C@H](O)[C@@H](CO)O2)c(=O)n1 [Decitabine] + CC1(C)CCC(c2ccc(Cl)cc2)=C(CN2CCN(c3ccc(C(=O)NS(=O)(=O)c4ccc(N[C@H](CCN5CCOCC5)CSc5ccccc5)c(S(=O)(=O)C(F)(F)F)c4)cc3)CC2)C1 [Navitoclax] (partner 0.5 µM)
How it was run: as §1

[4] = compound: Nc1ncn([C@H]2C[C@H](O)[C@@H](CO)O2)c(=O)n1 [Decitabine] + Cc1nc(NC(=O)N2CCC[C@H]2C(N)=O)sc1-c1ccnc(C(C)(C)C(F)(F)F)c1 [Alpelisib] (partner 2 µM)
How it was run: as §1

Cell Line | relative viability ([1]; first compound 0.001 µM) | relative viability ([1]; first compound 0.003162 µM) | relative viability ([1]; first compound 0.01 µM) | relative viability ([1]; first compound 0.03162 µM) | relative viability ([1]; first compound 0.1 µM) | relative viability ([2]; first compound 0.001 µM) | relative viability ([2]; first compound 0.003162 µM) | relative viability ([2]; first compound 0.01 µM) | relative viability ([2]; first compound 0.03162 µM) | relative viability ([2]; first compound 0.1 µM) | relative viability ([3]; first compound 0.04 µM) | relative viability ([3]; first compound 0.1265 µM) | relative viability ([3]; first compound 0.4 µM) | relative viability ([3]; first compound 1.265 µM) | relative viability ([3]; first compound 4 µM) | relative viability ([4]; first compound 0.04 µM) | relative viability ([4]; first compound 0.1265 µM) | relative viability ([4]; first compound 0.4 µM) | relative viability ([4]; first compound 1.265 µM) | relative viability ([4]; first compound 4 µM)
NCI-H1355 | 0.688 | 0.648 | 0.596 | 0.663 | 0.561 | 1.02 | 0.95 | 0.88 | 0.983 | 0.884 | 0.695 | 0.583 | 0.471 | 0.248 | 0.913 | 0.632 | 0.536 | 0.412 | 0.295 | 0.266
COR-L23 | 0.602 | 0.295 | 0.493 | 0.301 | 0.106 | 1 | 0.996 | 1.02 | 0.904 | 0.353 | 0.577 | 0.478 | 0.382 | 0.294 | 0.207 | 0.412 | 0.346 | 0.311 | 0.225 | 0.213
NCI-H2023 | 0.81 | 0.64 | 0.56 | 0.453 | 0.0822 | 1.11 | 0.636 | 0.826 | 0.288 | 0.139 | 0.609 | 0.517 | 0.379 | 0.259 | 0.198 | 0.438 | 0.461 | 0.305 | 0.214 | 0.188
A-427 | 0.89 | 0.891 | 0.828 | 0.827 | 0.807 | 0.979 | 1.03 | 1.02 | 1.06 | 0.915 | 0.674 | 0.578 | 0.365 | 0.255 | 0.191 | 0.695 | 0.462 | 0.303 | 0.265 | 0.232
NCI-H1793 | 0.898 | 0.672 | 0.664 | 0.846 | 0.497 | 0.814 | 0.74 | 0.538 | 0.67 | 0.429 | 0.356 | 0.406 | 0.333 | 0.227 | 0.169 | 0.695 | 0.565 | 0.573 | 0.433 | 0.392
NCI-H596 | 0.628 | 0.502 | 0.58 | 0.648 | 0.562 | 0.885 | 0.804 | 0.78 | 0.69 | 0.314 | 0.912 | 0.868 | 0.638 | 0.688 | 0.587 | 0.449 | 0.46 | 0.462 | 0.451 | 0.407
LU99A | 0.482 | 0.578 | 0.51 | 0.479 | 0.453 | 0.8 | 0.725 | 0.817 | 0.814 | 0.768 | 0.745 | 0.711 | 0.771 | 0.53 | 0.502 | 0.466 | 0.7 | 0.625 | 0.504 | 0.389
IA-LM | 1.02 | 0.995 | 0.902 | 0.92 | 0.878 | 1.29 | 1.03 | 1.08 | 0.982 | 0.07 | 0.415 | 0.313 | 0.156 | 0.162 | 0.169 | 0.464 | 0.406 | 0.297 | 0.207 | 0.152
NCI-H2009 | 0.86 | 0.703 | 0.76 | 0.703 | 0.462 | 1.21 | 1.23 | 1.13 | 1.18 | 0.775 | 0.945 | 0.722 | 0.568 | 0.416 | 0.263 | 1 | 0.88 | 0.593 | 0.413 | 0.303
